# In the supplement of paper PMC4932681:
# What was measured:
# BT-474 Tam1 [1] = experiment: relative IC50 (midpoint of fitted logistic curve, plateau may be below 50% inhibition; CellTiter-Glo viability); higher = less potent; conditions: 4-OH-tamoxifen in medium 1 µM; 72 h
# Protocol: (§1)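 FIMM FO2B library drugs were plated at 5 concentrations spanning a 10,000-fold range in 384-well plates. Cells were incubated for 72 h at 37 °C and viability was read by CellTiter-Glo, normalised to DMSO (0% inhibition) and 100 µM benzethonium chloride (100% inhibition). IC50 values come from logistic dose-response fits (Breeze pipeline). Tamoxifen-resistant lines and the 'in 1µM tamoxifen' parental arms were tested in medium with 1 µM 4-OH-tamoxifen.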
# ZR-75-1 Tam2 [2] = experiment: as above; conditions: 4-OH-tamoxifen in medium 1 µM; 72 h
# Protocol: as §1
# BT-474 Tam2 [3] = experiment: as above; conditions: 4-OH-tamoxifen in medium 1 µM; 72 h
# Protocol: as §1
# T-47D [4] = experiment: as above; conditions: 72 h
# Protocol: as §1
# MCF-7 [5] = experiment: as above; conditions: 72 h
# Protocol: as §1
# ZR-75-1 Tam1 [6] = experiment: as above; conditions: 4-OH-tamoxifen in medium 1 µM; 72 h
# Protocol: as §1
# T-47D Tam1 [7] = experiment: as above; conditions: 4-OH-tamoxifen in medium 1 µM; 72 h
# Protocol: as §1
# ZR-75-1 [8] = experiment: as above; conditions: 72 h
# Protocol: as §1
# BT-474 [9] = experiment: as above; conditions: 72 h
# Protocol: as §1
# BT-474 Tam1 [10] = experiment: drug sensitivity score (DSS) (DSS (dimensionless)); higher = more sensitive; extreme values may be limits of the assay; conditions: 4-OH-tamoxifen in medium 1 µM; 72 h
# Protocol: (§2)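 FIMM FO2B library drugs were tested at 5 concentrations (10,000-fold range) for 72 h, with CellTiter-Glo viability normalised to DMSO and benzethonium chloride controls. The Drug Sensitivity Score (DSS) is computed from the fitted logistic dose-response curve (area-based; 0 = inactive). Resistant lines and the 'in 1µM tamoxifen' arms were tested in 1 µM 4-OH-tamoxifen.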
# ZR-75-1 Tam2 [11] = experiment: as above; conditions: 4-OH-tamoxifen in medium 1 µM; 72 h
# Protocol: as §2
# BT-474 Tam2 [12] = experiment: as above; conditions: 4-OH-tamoxifen in medium 1 µM; 72 h
# Protocol: as §2
# T-47D [13] = experiment: as above; conditions: 72 h
# Protocol: as §2
# MCF-7 [14] = experiment: as above; conditions: 72 h
# Protocol: as §2
# ZR-75-1 Tam1 [15] = experiment: as above; conditions: 4-OH-tamoxifen in medium 1 µM; 72 h
# Protocol: as §2
# T-47D Tam2 = experiment: as above; conditions: 4-OH-tamoxifen in medium 1 µM; 72 h
# Protocol: as §2
# MCF-7 Tam1 [16] = experiment: as above; conditions: 4-OH-tamoxifen in medium 1 µM; 72 h
# Protocol: as §2
# T-47D Tam1 [17] = experiment: as above; conditions: 4-OH-tamoxifen in medium 1 µM; 72 h
# Protocol: as §2
# ZR-75-1 [18] = experiment: as above; conditions: 72 h
# Protocol: as §2
# BT-474 [19] = experiment: as above; conditions: 72 h
# Protocol: as §2
# MCF-7 Tam1 [20] = experiment: relative IC50 (midpoint of fitted logistic curve, plateau may be below 50% inhibition; CellTiter-Glo viability); higher = less potent; conditions: 4-OH-tamoxifen in medium 1 µM; 72 h
# Protocol: as §1
SMILES,relative IC50 (BT-474 Tam1 [1]) [µM],relative IC50 (ZR-75-1 Tam2 [2]) [µM],relative IC50 (BT-474 Tam2 [3]) [nM],relative IC50 (T-47D [4]; 4-OH-tamoxifen in medium 0 µM) [µM],relative IC50 (MCF-7 [5]; 4-OH-tamoxifen in medium 0 µM) [nM],relative IC50 (ZR-75-1 Tam1 [6]) [µM],relative IC50 (T-47D Tam1 [7]) [nM],relative IC50 (ZR-75-1 [8]; 4-OH-tamoxifen in medium 0 µM) [µM],relative IC50 (ZR-75-1 [8]; 4-OH-tamoxifen in medium 1 µM) [µM],relative IC50 (BT-474 [9]; 4-OH-tamoxifen in medium 0 µM) [nM],relative IC50 (BT-474 [9]; 4-OH-tamoxifen in medium 1 µM) [nM],drug sensitivity score (BT-474 Tam1 [10]),drug sensitivity score (ZR-75-1 Tam2 [11]),drug sensitivity score (BT-474 Tam2 [12]),drug sensitivity score (T-47D [13]; 4-OH-tamoxifen in medium 0 µM),drug sensitivity score (T-47D [13]; 4-OH-tamoxifen in medium 1 µM),drug sensitivity score (MCF-7 [14]; 4-OH-tamoxifen in medium 0 µM),drug sensitivity score (MCF-7 [14]; 4-OH-tamoxifen in medium 1 µM),drug sensitivity score (ZR-75-1 Tam1 [15]),drug sensitivity score (T-47D Tam2),drug sensitivity score (MCF-7 Tam1 [16]),drug sensitivity score (T-47D Tam1 [17]),drug sensitivity score (ZR-75-1 [18]; 4-OH-tamoxifen in medium 0 µM),drug sensitivity score (ZR-75-1 [18]; 4-OH-tamoxifen in medium 1 µM),drug sensitivity score (BT-474 [19]; 4-OH-tamoxifen in medium 0 µM),drug sensitivity score (BT-474 [19]; 4-OH-tamoxifen in medium 1 µM),relative IC50 (T-47D [4]; 4-OH-tamoxifen in medium 1 µM) [µM],relative IC50 (MCF-7 Tam1 [20]) [µM],relative IC50 (MCF-7 [5]; 4-OH-tamoxifen in medium 1 µM) [nM]
Cn1cc(C2=Nc3cc(NC(=O)C(N)C4CCCCC4)cc4c3C2=CNNC4=O)cn1 (stereo not given),> 10,> 10,> 10000,> 10,1890,> 10,1410,> 10,> 10,> 10000,> 10000,0,0,0,0,0.174,2.19,0.0458,0,2.29,0,4.76,0,0,0,0,,,
COc1cc2c(cc1O)CC[C@@H]1[C@@H]2CC[C@]2(C)[C@@H](O)CC[C@@H]12 [2-methoxyestradiol  (Panzem)],,> 10,,,,> 10,,4.13,> 10,2500,2750,0.83,0,0.943,0.97,0,3.15,0.767,0,1.01,0,0.761,1.28,0,3.19,3.93,> 10,> 10,
Cc1sc2c(c1C)C(c1ccc(Cl)cc1)=N[C@@H](CC(=O)OC(C)(C)C)c1nnc(C)n1-2 [(+)JQ1],1.14,0.336,1120,0.345,189,0.238,146,,0.359,136,1060,8.34,6.24,8.29,5.63,2.13,12.8,6.92,7.1,2.91,0.216,11,3.81,4.27,6.3,7.87,,,851
COc1cc(OC2CCN(C)CC2)ccc1Nc1ncc2c(n1)n(C1CCCC1)c(=O)n2C [AZ 3146],3.66,,,,,,> 10000,,,> 10000,1590,3.57,0.671,0.781,1.1,0.111,0.951,0.135,0.233,0.886,0.007,0,0.724,0.0431,0,7.15,,,
Nc1ncn([C@@H]2O[C@H](CO)[C@@H](O)[C@H]2O)c(=O)n1 [Azacitidine],> 10,> 10,,,2960,,,,> 10,,,0,0,0.198,0.134,0,1.55,0,0.0216,0.867,0,0.8,0.0144,0,0.0007,0.194,> 10,> 10,> 10000
Nc1nc(Cl)nc2c1ncn2[C@H]1C[C@H](O)[C@@H](CO)O1 [Cladribine],> 1,,> 1000,> 1,> 1000,,,,,> 1000,> 1000,0,1.16,0,0,0,0,0,0.538,0,0,0.899,0.0944,0.126,0,0,> 1,> 1,> 1000
Nc1ccccc1NC(=O)c1ccc(CNC(=O)OCc2cccnc2)cc1 [Entinostat],3.73,,2810,3.89,2990,,1820,3.96,,3440,3390,3.73,0.992,3.18,2.94,1.33,3.59,1.94,1.06,0.0349,0,5.11,1.19,0,3.08,4.39,3.99,,3280
Cc1c(C(=O)Nc2ccc(N3C[C@@H](C)O[C@@H](C)C3)nc2)cccc1-c1ccc(OC(F)(F)F)cc1 [Erismodegib (NVP-LDE225)],,> 10,,,,,> 10000,> 10,,,3610,0.226,0,1.6,0.587,0,0.927,0.267,0.271,1.05,0.695,0,0,0.747,0.627,1.78,> 10,,
